# Target: T1, Human O-GlcNAcase (His-Tagged hOGA) (Homo sapiens, UniProt O60502)
# T1 sequence (O60502 1-916): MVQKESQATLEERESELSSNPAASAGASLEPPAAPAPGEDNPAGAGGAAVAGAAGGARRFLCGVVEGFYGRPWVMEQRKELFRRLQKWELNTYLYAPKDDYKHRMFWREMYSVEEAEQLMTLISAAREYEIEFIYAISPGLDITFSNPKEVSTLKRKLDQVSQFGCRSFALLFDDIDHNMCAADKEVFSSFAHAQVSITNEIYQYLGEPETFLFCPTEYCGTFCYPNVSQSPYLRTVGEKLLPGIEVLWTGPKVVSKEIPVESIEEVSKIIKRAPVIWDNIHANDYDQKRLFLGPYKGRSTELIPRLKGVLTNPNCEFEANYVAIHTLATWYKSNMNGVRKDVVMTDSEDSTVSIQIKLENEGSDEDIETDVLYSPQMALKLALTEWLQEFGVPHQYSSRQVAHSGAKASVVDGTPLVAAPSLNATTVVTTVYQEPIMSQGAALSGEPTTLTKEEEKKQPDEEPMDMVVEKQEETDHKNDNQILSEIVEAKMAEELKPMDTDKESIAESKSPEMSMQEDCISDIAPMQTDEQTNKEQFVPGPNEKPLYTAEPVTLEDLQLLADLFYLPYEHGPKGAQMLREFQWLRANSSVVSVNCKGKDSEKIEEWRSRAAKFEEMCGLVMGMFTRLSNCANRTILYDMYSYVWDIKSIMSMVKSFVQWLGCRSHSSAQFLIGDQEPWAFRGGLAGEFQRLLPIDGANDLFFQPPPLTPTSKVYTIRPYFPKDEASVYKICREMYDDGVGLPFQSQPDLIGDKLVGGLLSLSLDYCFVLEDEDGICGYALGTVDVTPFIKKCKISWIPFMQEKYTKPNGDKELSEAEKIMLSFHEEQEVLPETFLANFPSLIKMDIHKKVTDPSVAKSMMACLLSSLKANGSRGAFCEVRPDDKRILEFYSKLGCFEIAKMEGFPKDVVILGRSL
# Assay: Human O-GlcNAcase enzyme inhibition assay
# Assay type: biochemical
# Settings: 20 nM His-Tagged hOGA, 10 μM FL-GlcNAc, McIlvaine's Buffer pH 6.5, 60 min at room temperature, fluorescence; read-out: OGA IC50
# Description: Example B01: Human O-GlcNAcase Enzyme Inhibition Assay
# 5 μl of the appropriate concentration of a solution of inhibitor in Mcllvaine's Buffer (pH 6.5) in 2% DMSO (for a dose response curve calculation) is added into each well of a 384-well plate (Greiner, 781900). Then, 20 nM of His-Tagged hOGA and 10 μM of FL-GlcNAc (Fluorescein mono-beta-D-(2-deoxy-2-N-acetyl) glucopyranoside; Marker Gene Technologies Inc, M1485) were added to the 384-well plate for a final volume of 20 μl. After incubation for 60 min at room temperature, the reaction was terminated by the addition of 10 μL of stop buffer (200 mM glycine, pH 10.75). The level of fluorescence (λexc 485 nm; (λemm 520 nm) was read on a PHERAstar machine. The amount of fluorescence measured was plotted against the concentration of inhibitor to produce a sigmoidal dose response curve to calculate an IC50. All individual data was corrected by subtraction of the background (Thiamet 3 uM=100% inhibition) whilst 0.5% DMSO was considered as the control value (no inhibition).
row,Compound,IC50 [nM]
1,"Clc1cc(-c2ccccn2)ccc1CN1CCCC1c1ccc2c(c1)OCCO2 (racemic) [Example 43, (3-chloro-4-((2-(2,3-dihydrobenzo[b] [1,4]dioxin-6-yl)pyrrolidin-1-yl)methyl)phenyl) pyridine]",1000 to 10000
2,"Cc1noc(C)c1-c1ccc(CN2CCCC2c2ccc3c(c2)OCCO3)cc1 (racemic) [Example 54, 4-(4-((2-(2,3-dihydrobenzo[b] [1,4]dioxin-6-yl)pyrrolidin-1-yl)methyl)phenyl)-3,5-dimethylisoxazole]",1000 to 10000
3,"Cc1nn(C)c(C)c1-c1ccc(CN2CCCC2c2ccc3c(c2)OCCO3)cc1 (racemic) [Example 55, 4-(4-((2-(2,3-dihydrobenzo[b] [1,4]dioxin-6-yl)pyrrolidin-1-yl)methyl)phenyl)-1,3,5-trimethyl-1H-pyrazole]",1000 to 10000
4,"O=C1CCCCN1c1ccc(CN2CCCC2c2ccc3c(c2)OCCO3)cc1 (racemic) [Example 62, 1-(4-((2-(2,3-dihydrobenzo[b] [1,4]dioxin-6-yl)pyrrolidin-1-yl)methyl)phenyl)piperidin-2-one]",200 to 1000
5,"CS(=O)(=O)CCOc1ccc(CN2CCCC2c2ccc3c(c2)OCCO3)cc1 (racemic) [Example 65, 2-(2,3-dihydrobenzo[b] [1,4]dioxin-6-yl)-1-(4-(2-(methylsulfonyl)ethoxy)benzyl)pyrrolidine]",1000 to 10000
6,"O=S1(=O)CCN(c2ccc(CN3CCCC3c3ccc4c(c3)OCCO4)cc2)CC1 (racemic) [Example 66, 4-(4-((2-(2,3-dihydrobenzo[b] [1,4]dioxin-6-yl)pyrrolidin-1-yl)methyl)phenyl)thiomorpholine 1,1-dioxide]",200 to 1000
7,"O=C1CSCCN1c1ccc(CN2CCCC2c2ccc3c(c2)OCCO3)cc1 (racemic) [Example 67, 4-(4-((2-(2,3-dihydrobenzo[b] [1,4]dioxin-6-yl)pyrrolidin-1-yl)methyl)phenyl)thiomorpholin-3-one]",200 to 1000
8,"Cc1csc(-c2ccc(CN3CCCC3c3ccc4c(c3)OCCO4)cc2)n1 (racemic) [Example 68, 2-(4-((2-(2,3-dihydrobenzo[b] [1,4]dioxin-6-yl)pyrrolidin-1-yl)methyl)phenyl)-4-methylthiazole]",200 to 1000
9,"Cc1cnccc1-c1ccc(CN2CCCC2c2ccc3c(c2)OCCO3)cc1C (racemic) [Example 70, 4-(4-((2-(2,3-dihydrobenzo[b] [1,4]dioxin-6-yl)pyrrolidin-1-yl)methyl)-2-methylphenyl)-3-methylpyridine]",1000 to 10000
10,"Cc1cc(CN2CCCC2c2ccc3c(c2)OCCO3)ccc1-c1cccnc1C (racemic) [Example 71, 3-(4-((2-(2,3-dihydrobenzo[b] [1,4]dioxin-6-yl)pyrrolidin-1-yl)methyl)-2-methylphenyl)-2-methylpyridine]",200 to 1000
11,"Cn1cc(-c2ccc(CN3CCCC3c3ccc4c(c3)OCO4)cc2)cn1 (racemic) [Example 72, 4-(4-((2-(benzo[d] [1,3]dioxol-5-yl)pyrrolidin-1-yl)methyl)phenyl)-1-methyl-1H-pyrazole]",200 to 1000
12,"O=c1[nH]nc(-c2ccc(CN3CCCC3c3ccc4c(c3)OCCO4)cc2)o1 (racemic) [Example 76, 5-(4-((2-(2,3-dihydrobenzo[b] [1,4]dioxin-6-yl)pyrrolidin-1-yl)methyl)phenyl)-1,3,4-oxadiazol-2(3H)-one]",200 to 1000
13,CN1CCN(c2ccc(CN3CCCC3c3ccc4c(c3)OCCO4)cc2)CC1 (racemic) [Example 146],1000 to 10000

# More lines, now with the values ahead:
row,IC50 [nM],Compound
1,200 to 1000,"CS(=O)(=O)c1cccc(-c2ccc(CN3CCCC3c3ccc4c(c3)OCCO4)cc2)c1 (racemic) [Example 44, 2-(2,3-dihydrobenzo[b] [1,4]dioxin-6-yl)-1-((3′-(methylsulfonyl)-[1,1′-biphenyl]-4-yl)methyl)pyrrolidine]"
2,50 to 200,"Cc1cc(-c2cnn(C)c2)ccc1CN1CCCC1c1ccc2c(c1)OCCO2 (racemic) [Example 45, 4-(4-((2-(2,3-dihydrobenzo[b] [1,4]dioxin-6-yl)pyrrolidin-1-yl)methyl)-3-methylphenyl)-1-methyl-1H-pyrazole]"
3,200 to 1000,"c1cc(-c2ccc(CN3CCCC3c3ccc4c(c3)OCCO4)cc2)ccn1 (racemic) [Example 46, 4-(4-((2-(2,3-dihydrobenzo[b] [1,4]dioxin-6-yl)pyrrolidin-1-yl)methyl)phenyl)pyridine]"
4,200 to 1000,"Cc1cc(-c2ccncc2)ccc1CN1CCCC1c1ccc2c(c1)OCCO2 (racemic) [Example 49, 4-(4-((2-(2,3-dihydrobenzo[b] [1,4]dioxin-6-yl)pyrrolidin-1-yl)methyl)-3-methylphenyl)pyridine]"
5,200 to 1000,"CC(=O)Nc1ncc(CN2CCCC2c2ccc3c(c2)OCCO3)s1 (racemic) [Example 50, N-(5-((2-(2,3-dihydrobenzo[b] [1,4]dioxin-6-yl)pyrrolidin-1-yl)methyl)thiazol-2-yl)acetamide]"
6,50 to 200,"Brc1cnn(-c2ccc(CN3CCCC3c3ccc4c(c3)OCCO4)cc2)c1 (racemic) [Example 51, 4-bromo-1-(4-((2-(2,3-dihydrobenzo[b] [1,4]dioxin-6-yl)pyrrolidin-1-yl)methyl)phenyl)-1H-pyrazole]"
7,50 to 200,"N#Cc1cnn(-c2ccc(CN3CCCC3c3ccc4c(c3)OCCO4)cc2)c1 (racemic) [Example 52, 1-(4-((2-(2,3-dihydrobenzo[b] [1,4]dioxin-6-yl)pyrrolidin-1-yl)methyl)phenyl)-1H-pyrazole-4-carbonitrile]"
8,200 to 1000,"Cc1cc(-c2cccnc2C)ccc1CN1CCCC1c1ccc2c(c1)OCCO2 (racemic) [Example 56, 3-(4-((2-(2,3-dihydrobenzo[b] [1,4]dioxin-6-yl)pyrrolidin-1-yl)methyl)-3-methylphenyl)-2-methylpyridine]"
9,200 to 1000,"Cc1cc(-c2ccncc2C)ccc1CN1CCCC1c1ccc2c(c1)OCCO2 (racemic) [Example 57, 4-(4-((2-(2,3-dihydrobenzo[b] [1,4]dioxin-6-yl)pyrrolidin-1-yl)methyl)-3-methylphenyl)-3-methylpyridine]"
10,50 to 200,"c1csc(-c2ccc(CN3CCCC3c3ccc4c(c3)OCCO4)cc2)n1 (racemic) [Example 58, 2-(4-((2-(2,3-dihydrobenzo[b] [1,4]dioxin-6-yl)pyrrolidin-1-yl)methyl)phenyl)thiazole]"
11,200 to 1000,"Cc1cnc(-c2ccc(CN3CCCC3c3ccc4c(c3)OCCO4)cc2)s1 (racemic) [Example 59, 2-(4-((2-(2,3-dihydrobenzo[b] [1,4]dioxin-6-yl)pyrrolidin-1-yl)methyl)phenyl)-5-methylthiazole]"
12,50 to 200,"N#Cc1cnc(-c2ccc(CN3CCCC3c3ccc4c(c3)OCCO4)cc2)s1 (racemic) [Example 60, 2-(4-((2-(2,3-dihydrobenzo[b] [1,4]dioxin-6-yl)pyrrolidin-1-yl)methyl)phenyl)thiazole-5-carbonitrile]"
13,200 to 1000,"O=C1COCCN1c1ccc(CN2CCCC2c2ccc3c(c2)OCCO3)cc1 (racemic) [Example 61, 4-(4-((2-(2,3-dihydrobenzo[b] [1,4]dioxin-6-yl)pyrrolidin-1-yl)methyl)phenyl) morpholin-3-one]"
14,50 to 200,"CS(=O)(=O)c1cncc(-c2ccc(CN3CCCC3c3ccc4c(c3)OCCO4)cc2)c1 (racemic) [Example 63, 3-(4-((2-(2,3-dihydrobenzo[b] [1,4]dioxin-6-yl)pyrrolidin-1-yl)methyl)phenyl)-5-(methylsulfonyl)pyridine]"
15,50 to 200,"c1cnc(-c2ccc(CN3CCCC3c3ccc4c(c3)OCCO4)cc2)cn1 (racemic) [Example 64, 2-(4-((2-(2,3-dihydrobenzo[b] [1,4]dioxin-6-yl)pyrrolidin-1-yl)methyl)phenyl)pyrazine]"
16,50 to 200,"c1cnc(-c2ccc(CN3CCCC3c3ccc4c(c3)OCCO4)cc2)nc1 (racemic) [Example 69, 2-(4-((2-(2,3-dihydrobenzo[b] [1,4]dioxin-6-yl)pyrrolidin-1-yl)methyl)phenyl) pyrimidine]"
17,50 to 200,c1cnnc(-c2ccc(CN3CCCC3c3ccc4c(c3)OCCO4)cc2)c1 (racemic) [Example 144]
